Assay: Stability assessment of pirfenidone formulations at 25°C/60% RH and 40°C/75% RH
Assay type: physicochemical
Conditions: for Measured Pirfenidone / mOsmol/kg / pH: time zero
[1] = 25° C./60% RH, target 1 mg/mL, 5 mM phosphate buffer pH 6.5 plus 1% (v/v) EtOH, 2% (v/v) PG
[2] = 25° C./60% RH, target 1 mg/mL, 5 mM phosphate buffer pH 6.5 plus 8% (v/v) EtOH, 16% (v/v) PG
[3] = 25° C./60% RH, target 15 mg/mL, 5 mM phosphate buffer pH 6.5 plus 1% (v/v) EtOH, 2% (v/v) PG
[4] = 25° C./60% RH, target 23 mg/mL, 5 mM phosphate buffer pH 6.5 plus 4% (v/v) EtOH, 8% (v/v) PG
[5] = 25° C./60% RH, target 30 mg/mL, 5 mM phosphate buffer pH 6.5 plus 6% (v/v) EtOH, 12% (v/v) PG
[6] = 25° C./60% RH, target 38 mg/mL, 5 mM phosphate buffer pH 6.5 plus 8% (v/v) EtOH, 16% (v/v) PG
[7] = 40° C./75% RH, target 1 mg/mL, 5 mM phosphate buffer pH 6.5 plus 1% (v/v) EtOH, 2% (v/v) PG
[8] = 40° C./75% RH, target 1 mg/mL, 5 mM phosphate buffer pH 6.5 plus 8% (v/v) EtOH, 16% (v/v) PG
[9] = 40° C./75% RH, target 15 mg/mL, 5 mM phosphate buffer pH 6.5 plus 1% (v/v) EtOH, 2% (v/v) PG
[10] = 40° C./75% RH, target 23 mg/mL, 5 mM phosphate buffer pH 6.5 plus 4% (v/v) EtOH, 8% (v/v) PG
[11] = 40° C./75% RH, target 30 mg/mL, 5 mM phosphate buffer pH 6.5 plus 6% (v/v) EtOH, 12% (v/v) PG
[12] = 40° C./75% RH, target 38 mg/mL, 5 mM phosphate buffer pH 6.5 plus 8% (v/v) EtOH, 16% (v/v) PG
[13] = target 1 mg/mL, 5 mM phosphate buffer pH 6.5 plus 1% (v/v) EtOH, 2% (v/v) PG
[14] = target 1 mg/mL, 5 mM phosphate buffer pH 6.5 plus 8% (v/v) EtOH, 16% (v/v) PG
[15] = target 15 mg/mL, 5 mM phosphate buffer pH 6.5 plus 1% (v/v) EtOH, 2% (v/v) PG
[16] = target 23 mg/mL, 5 mM phosphate buffer pH 6.5 plus 4% (v/v) EtOH, 8% (v/v) PG
[17] = target 30 mg/mL, 5 mM phosphate buffer pH 6.5 plus 6% (v/v) EtOH, 12% (v/v) PG

Cc1ccc(=O)n(-c2ccccc2)c1 [pirfenidone, 5-methyl-1-phenyl-2-(1H)-pyridone]
Pirfenidone at Time = 0 [1]: 1.0 mg/mL | Pirfenidone at Time = 1 month [1]: 1.0 mg/mL | Pirfenidone at Time = 3 month [1]: 1.0 mg/mL | Pirfenidone at Time = 6 month [1]: 1.0 mg/mL | Pirfenidone at Time = 0 [2]: 1.0 mg/mL | Pirfenidone at Time = 1 month [2]: 1.0 mg/mL | Pirfenidone at Time = 3 month [2]: 1.0 mg/mL | Pirfenidone at Time = 6 month [2]: 1.0 mg/mL | Pirfenidone at Time = 0 [3]: 16.1 mg/mL | Pirfenidone at Time = 1 month [3]: 15.1 mg/mL | Pirfenidone at Time = 3 month [3]: 14.9 mg/mL | Pirfenidone at Time = 6 month [3]: 15.4 mg/mL | Pirfenidone at Time = 0 [4]: 24.1 mg/mL | Pirfenidone at Time = 1 month [4]: 22.1 mg/mL | Pirfenidone at Time = 3 month [4]: 22.3 mg/mL | Pirfenidone at Time = 6 month [4]: 23.2 mg/mL | Pirfenidone at Time = 0 [5]: 30.3 mg/mL | Pirfenidone at Time = 1 month [5]: 30.1 mg/mL | Pirfenidone at Time = 3 month [5]: 29.6 mg/mL | Pirfenidone at Time = 6 month [5]: 31.0 mg/mL | Pirfenidone at Time = 0 [6]: 38.9 mg/mL | Pirfenidone at Time = 1 month [6]: 38.3 mg/mL | Pirfenidone at Time = 3 month [6]: 38.0 mg/mL | Pirfenidone at Time = 6 month [6]: 39.2 mg/mL | Pirfenidone at Time = 0 [7]: 1.0 mg/mL | Pirfenidone at Time = 1 month [7]: 1.0 mg/mL | Pirfenidone at Time = 3 month [7]: 1.0 mg/mL | Pirfenidone at Time = 6 month [7]: 1.0 mg/mL | Pirfenidone at Time = 0 [8]: 1.0 mg/mL | Pirfenidone at Time = 1 month [8]: 1.0 mg/mL | Pirfenidone at Time = 3 month [8]: 1.0 mg/mL | Pirfenidone at Time = 6 month [8]: 1.0 mg/mL | Pirfenidone at Time = 0 [9]: 16.1 mg/mL | Pirfenidone at Time = 1 month [9]: 15.1 mg/mL | Pirfenidone at Time = 3 month [9]: 14.8 mg/mL | Pirfenidone at Time = 6 month [9]: 15.5 mg/mL | Pirfenidone at Time = 0 [10]: 24.1 mg/mL | Pirfenidone at Time = 1 month [10]: 22.4 mg/mL | Pirfenidone at Time = 3 month [10]: 22.1 mg/mL | Pirfenidone at Time = 6 month [10]: 23.3 mg/mL | Pirfenidone at Time = 0 [11]: 30.3 mg/mL | Pirfenidone at Time = 1 month [11]: 30.3 mg/mL | Pirfenidone at Time = 3 month [11]: 30.0 mg/mL | Pirfenidone at Time = 6 month [11]: 31.1 mg/mL | Pirfenidone at Time = 0 [12]: 38.9 mg/mL | Pirfenidone at Time = 1 month [12]: 38.4 mg/mL | Pirfenidone at Time = 3 month [12]: 38.0 mg/mL | Pirfenidone at Time = 6 month [12]: 37.9 mg/mL | Measured Pirfenidone [13]: 1.0 mg/mL | mOsmol/kg [13]: 452 mOsmol/kg | pH [13]: 6.69 | Measured Pirfenidone [14]: 1.0 mg/mL | mOsmol/kg [14]: 3590 mOsmol/kg | pH [14]: 6.98 | Measured Pirfenidone [15]: 16.1 mg/mL | mOsmol/kg [15]: 512 mOsmol/kg | pH [15]: 6.65 | Measured Pirfenidone [16]: 24.1 mg/mL | pH [16]: 6.78 | Measured Pirfenidone [17]: 30.3 mg/mL | mOsmol/kg [17]: 2863 mOsmol/kg

— patent US10028966B2 (Avalyn Pharma Inc., priority 2014, dated 2018)
